The record followed here is patent publication US4886812A, “Tetrahydro-benzthiazoles, the preparation thereof and their use as intermediate products or as pharmaceuticals” (Dr. Karl Thomae GmbH, priority 1984, dated 1989).

Data set [1] deals with dopamine turnover. The data set is described as follows: Inhibition of dopamine turnover (AMPT-induced dopamine reduction in brain). Format: in vivo, mice. The method, then: The inhibition of dopamine turnover was measured in mice. In animals treated with α-methylparatyrosine (AMPT) (250 mg/kg by intraperitoneal route) 15 minutes into the experiment, the dopamine concentration throughout the brain decreases as the test progresses. By administering substances which act on autoreceptors, the dopamine reduction (compared with control animals treated with common salt solution) can be prevented. Test substances are administered at time O of the experiment in a dosage of 5 mg/kg s.c., unless otherwise stated. Four hours and 15 minutes into the experiment the animals are killed and the brains are subjected to dopamine determination using high pressure liquid chromatography with electrochemical detection. This determines the percentage inhibition, caused by the test substance, of the dopamine reduction induced by AMPT.

For data set [2], the system named is presynaptic dopamine receptors. Briefly: Inhibition of the exploratory activity of mice (infra-red light barrier cages). The data set is classed as in vivo. The procedure:
The activity was measured in observation cages fitted with an infra-red light barrier. […] Groups of 5 animals are given the test substance, unless otherwise specified, in a dosage of 10 mg/kg by subcutaneous injection. […] In parallel or alternately with groups treated with test substance, control groups treated with common salt are investigated (0.9% solution; 0.1 ml/10 g of body weight by subcutaneous route).

Data set [3] relates to dopamine synthesis. Briefly: Inhibition of dopamine synthesis (γ-butyrolactone-stimulated DOPA accumulation in corpus striatum). The data set is classed as in vivo. The method, then:
For this purpose, 5 animals are given the test substance in a dosage of 10 mg/kg s.c., unless otherwise stated. […] In order to inhibit the decarboxylation of DOPA, 200 mg/kg of 3-hydroxybenzyl-hydrazinhydrochloride are administered by intraperitoneal route after a further 5 minutes. Forty minutes after administration of the substance the animals are killed and the corpus striatum is prepared. The DOPA content is measured by HPLC with electrochemical detection (standard: dihydroxybenzylamine).
The percentage inhibition, produced by the test substance, of the DOPA accumulation stimulated by γ- butyrolactone compared with the controlled animals treated with 0.9% common salt solution is determined.

Data set [4] concerns Rhesus monkeys (MPTP model for Parkinson's disease). The text has this:
The discovery of the neurotoxin 1-methyl-4-phenyl-1,2,3,6-tetrahydropyridine (MPTP) (Langston et al., Science 219, 979 (1983)) provided an animal model for Parkinson's disease.
The irreversible neurological syndrome triggered by MPTP in man and in monkeys largely resembles the idiopathic Parkinson's disease in its clinical, pathological, biochemical and pharmacological characteristics (Markey et al., Nature 311, 464 (1984)). The reason for this convincing similarity is the fact that MPTP selectively destroys the small group of dopaminergic nerve cells in the substantia nigra of the brain which are also destroyed by degenerative processes in naturally occurring Parkinson's disease.

Setting [5] is: 5 mg/kg s.c., AMPT 250 mg/kg i.p., brain dopamine at 4 hours 15 minutes.
Where [6] appears, read: 10 mg/kg s.c., measurement of exploration 75 minutes after administration.

Where a name gives a salt, the structure may show the parent alone.

`CN(C)C1CCc2nc(N)sc2C1.Cl.Cl` (stereo not shown) [Substance A, 2-amino-6-dimethylamino-4,5,6,7-tetrahydrobenzthiazol-dihydrochloride]: the ED50 is 0.95 mg/kg in data set [1] (Mus musculus, sc, 50 % inhibition, curve in the range 0.5-3 mg/kg s.c., read-out: Dosage giving 50 % inhibition of AMPT effect (read off from the dosage/activity curve)) and 0.55 mg/kg in data set [3] (sc, 50 percent inhibition, curve in the range 0.1-1.0 mg/kg s.c., read-out: Dosage giving 50 percent inhibition of DOPA accumulation (read off from the dosage/activity curve)). Further, the “% inhibition of AMPT effect” value in data set [1] (at 0.95 mg/kg s.c., read off from the dosage/activity curve (0.5-3 mg/kg s.c.)) was 50%. Moreover, the “Dosage giving 50 percent inhibition of activity (read off from the dosage/activity curve)” value in data set [2] (50 percent inhibition, curve in the range 1-10 mg/kg s.c.) amounted to 2.7 mg/kg s.c. Moreover, in data set [2] (at 2.7 mg/kg s.c., read off from the dosage/activity curve (1-10 mg/kg s.c.)), the “Inhibition of activity in percent compared with controls treated with common salt” value (shortened to “Inhibition of activity in percent”) was determined as 50%. For the same molecule, in data set [3] (at 0.55 mg/kg s.c., read off from the dosage/activity curve (0.1-1.0 mg/kg s.c.)), the “Inhibition of DOPA accumulation in percent compared with controls treated with common salt” value was 50%.

For the molecule `Cl.Cl.Nc1nc2c(s1)CC(N1CCCC1)CC2` (stereo not shown) [Substance B, 2-amino-6-pyrrolidino-4,5,6,7-tetrahydrobenzthiazol-dihydrochloride], in data set [1] (setting [5]), the “% inhibition of AMPT effect” value is reported as 67%. For the same molecule, in data set [2] (10 mg/kg s.c., measured one hour after administration), the “Inhibition of activity in percent” value is listed as 94%.

Take `CCCNC1CCc2nc(N)sc2C1.Cl.Cl` (stereo not shown) [Substance C, 2-amino-6-n-propylamino-4,5,6,7-tetrahydrobenzthiazol-dihydrochloride]: in data set [4] (10-100 μg/kg intramuscular), the Residual symptoms result was “an occasional transient and slight resting tremor and a reduction in rough strength”; the Sedation entry was “no sedation”. Besides, in data set [4] (10-100 μg/kg intramuscular, compared with before administration), the “Circulation in the skin” value is on record as “appeared to be greater than before”. In data set [4] (after reversion to Parkinson symptoms), the “Effect of a fresh administration” value is recorded as “again leads to an improvement or substantial removal of the clinically pathological manifestations”. The “Inhibition of activity in percent” value in data set [2] (setting [6]) was found to be 20%. The “Inhibition of DOPA accumulation in percent compared with controls treated with common salt” value in data set [3] (10 mg/kg s.c., γ-butyrolactone 750 mg/kg i.p., 40 minutes after administration) came to 60%.

Turning to `C=CCNc1nc2c(s1)CC(N(C)C)CC2.Cl.Cl` (stereo not shown) [Substance D, 2-allylamino-6-dimethylamino-4,5,6,7-tetrahydro-benzthiazol-dihydrochloride], the “% inhibition of AMPT effect” value in data set [1] (setting [5]) stood at 52%. Besides, in data set [2] (setting [6]), the “Inhibition of activity in percent” value worked out at 76%.

With `C=CCN(Cc1ccc(Cl)cc1)C1CCc2nc(N)sc2C1` (stereo not shown) [Substance E, 6-[N-ally-N-(4-chloro-benzyl)-amino]-2-amino-4,5,6,7-tetrahydro-benzthiazol-dihydrochloride], in data set [1] (setting [5]), the “% inhibition of AMPT effect” value was 32%. Also, the “Inhibition of activity in percent” value in data set [2] (setting [6]) worked out at 56%.

Take `C=CCN(CC=C)C1CCc2nc(N)sc2C1.Cl.Cl` (stereo not shown) [Substance F, 2-amino-6-diallylamino-4,5,6,7-tetrahydrobenzthiazol-dihydrochloride]: the “Inhibition of activity in percent” value in data set [2] (setting [6]) is 60%.
